Results reported in patent US8759400B2, “Histone deacetylase inhibitors for enhancing activity of antifungal agents” (MethylGene Inc., priority 2005, dated 2014).
In brackets after ≈: the same amount, converted by molar mass.

Columns and labels:
C. albicans (ATCC 90028) = experiment: MIC80 and checkerboard synergy with antifungal agents; assay type: cell-based, Candida albicans; conditions: Candida albicans, ATCC90028; compound alone; C. albicans (ATCC 90028); read-out: MIC80
C. glabrata (ATCC 90030) [1] = experiment: as above; assay type: cell-based, Candida glabrata; conditions: Nakaseomyces glabratus, ATCC90030; compound alone; C. glabrata (ATCC 90030); read-out: MIC80
HDAC [2] = experiment: HDAC inhibitory activity in fungal protoplasts (Fluor-de-Lys); assay type: cell-based, Candida albicans; conditions: C. albicans protoplasts
Protocol: (§1) Protoplasts of C. albicans and C. glabrata are prepared by the […] method of Franzusoff et al.

HDAC [3] = experiment: as above; assay type: cell-based, Candida glabrata; conditions: C. glabrata protoplasts
Protocol: as §1

ERG11 expression = ERG11 expression with fluconazole (FIG. 3); assay type: cell-based; conditions: compound 6 and fluconazole, C. albicans
HMEC = experiment: Mammalian cytotoxicity, MTT reduction
C. glabrata = experiment: Post-antifungal effect (PAFE); assay type: cell-based; conditions: itraconazole alone at 0.25 MIC
Protocol: The post-antifungal effect (PAFE) is the time needed to achieve one log10 of cell growth after drug removal. One-two colonies are resuspended in 5 ml YPD. […] Cells are incubated at 30° C. overnight. In the morning, the optical density at 600 nm is read. Cells at A600 the closest but not surpassing 0.3 (early log-phase cells) are picked for further treatments as follows: […] Counts of CFU/ml are performed at time zero, before and after diluting the cells and at predetermined time points in order to determine the PAFE and the cidal potential of each drug combination (FIGS. 5-10).

C. glabrata (ATCC 90030) [4] = assay type: cell-based; conditions: agar plates containing 4×MIC of the relevant azole alone
[5] = tested on: C. glabrata parent strain (ATCC 90030) and C. glabrata mutants; experiment: microbe, parasite or virus in culture; assay type: cell-based; conditions: for MIC80: azole alone
A. flavus = experiment: Clinical isolates, CLSI M38-A broth microdilution and checkerboard; assay type: cell-based; conditions: itraconazole alone, 48 hour endpoint, listed as ITR

MIC (C. albicans (ATCC 90028)) [mg/L]	MIC (C. glabrata (ATCC 90030) [1]) [mg/L]	HDAC inhibition IC50 (HDAC [2]) [mg/L]	HDAC inhibition IC50 (HDAC [3]) [mg/L]	HDAC inhibition, per cent in parentheses beside IC50 >20 (HDAC [3]; concentration not given) [%]	SMILES	ERG11 expression (ERG11 expression)	MTT HMEC (HMEC) [µM]	PAFE (C. glabrata)	frequency of resistant C. glabrata mutants (C. glabrata (ATCC 90030) [4])	MIC80 ([5]; C. glabrata mutants resistant to that azole) [mg/L]	MIC80 ([5]; C. glabrata parent strain) [mg/L]	MIC80 itraconazole relative to wild type ([5]; fluconazole-resistant mutants (all)) [× wild type]	itraconazole MIC80 in presence of Compound 4 ([5]; itraconazole-resistant mutants) [mg/L]	ITR MIC (A. flavus; A. flavus isolate 20351.092) [mg/L]	ITR MIC (A. flavus; A. flavus isolate 20414.083) [mg/L]
25	25	>20	> 20	22	O=C(CCc1ccc(CCCc2ccccc2)cc1)NO [Cpd 6]	decreases	40								
					CCC(C)n1ncn(-c2ccc(N3CCN(c4ccc(OCC5COC(Cn6cncn6)(c6ccc(Cl)cc6Cl)O5)cc4)CC3)cc2)c1=O (stereo not drawn) [itraconazole, reference compound]			No PAFE	3×10^−7	> 64	1 (≈ 1.42 µM)	64	≤ 1	0.5	1.0
